Measurements: ChEMBL document CHEMBL4028893, “Discovery and Optimization of Potent, Cell-Active Pyrazole-Based Inhibitors of Lactate Dehydrogenase (LDH)” (J Med Chem, 2017)
Activity calls are given as the source filed them. The calls are words filed in the database; no cut-off is given here.

What was measured:
Mus musculus [1] = assay: Clearance in CD1 mouse plasma at 2 mg/kg, iv measured over 24 hrs post dose by LC/MS/MS analysis; format: ADME, organism-based; conditions: in vivo
[2] = biological target: Isocitrate dehydrogenase [NADP] cytoplasmic (Homo sapiens, UniProt O75874); assay: Inhibition of wild type IDH1 (unknown origin) using isocitrate as substrate preincubated for 30 mins followed by substrate addition in presence of NADP+ measured up to 5 mins by resorufin-based fluorescence assay
[3] = Drug level in human A673 cells by LC-MS/MS analysis; format: ADME, cell-based
[4] = Drug level in human MIAPaCa2 cells by LC-MS/MS analysis; format: ADME, cell-based; conditions: mia paca-2
MIA PaCa-2 = assay: Cytoxicity against human MIAPaCa2 cells assessed as cell growth inhibition at 20 uM after 48 hrs by CellTiter-Glo assay; format: functional, cell-based
Liver [5] = assay: Drug metabolism in mouse liver microsomes assessed as glucuronidated metabolite formation measured over 90 mins in presence of NADPH/UDPGA; format: ADME, microsome
Liver [6] = assay: Drug metabolism in human liver microsomes assessed as glucuronidated metabolite formation measured over 90 mins in presence of NADPH/UDPGA; format: ADME, microsome
Mus musculus [7] = assay: AUClast in CD1 mouse plasma at 2 mg/kg, iv measured over 24 hrs post dose by LC/MS/MS analysis; format: ADME, organism-based; set-up: dose 2 mg/kg, time 0 - last, route intravenous; conditions: in vivo
Mus musculus [8] = assay: Volume of distribution at steady state in CD1 mouse plasma at 2 mg/kg, iv measured over 24 hrs post dose by LC/MS/MS analysis; format: ADME, organism-based; conditions: in vivo
Mus musculus [9] = assay: Cmax in CD1 mouse plasma at 50 mg/kg, po measured over 24 hrs post dose by LC/MS/MS analysis; format: ADME, organism-based; set-up: dose 50 mg/kg, route oral; conditions: in vivo
Mus musculus [10] = assay: AUClast in CD1 mouse plasma at 50 mg/kg, po measured over 24 hrs post dose by LC/MS/MS analysis; format: ADME, organism-based; set-up: dose 50 mg/kg, time 0 - last, route oral; conditions: in vivo
Mus musculus [11] = assay: Oral bioavailability in CD1 mouse plasma at 50 mg/kg measured over 24 hrs post dose by LC/MS/MS analysis; format: ADME, organism-based; conditions: in vivo

Isocitrate dehydrogenase [NADP] cytoplasmic, sequence (O75874 whole entry): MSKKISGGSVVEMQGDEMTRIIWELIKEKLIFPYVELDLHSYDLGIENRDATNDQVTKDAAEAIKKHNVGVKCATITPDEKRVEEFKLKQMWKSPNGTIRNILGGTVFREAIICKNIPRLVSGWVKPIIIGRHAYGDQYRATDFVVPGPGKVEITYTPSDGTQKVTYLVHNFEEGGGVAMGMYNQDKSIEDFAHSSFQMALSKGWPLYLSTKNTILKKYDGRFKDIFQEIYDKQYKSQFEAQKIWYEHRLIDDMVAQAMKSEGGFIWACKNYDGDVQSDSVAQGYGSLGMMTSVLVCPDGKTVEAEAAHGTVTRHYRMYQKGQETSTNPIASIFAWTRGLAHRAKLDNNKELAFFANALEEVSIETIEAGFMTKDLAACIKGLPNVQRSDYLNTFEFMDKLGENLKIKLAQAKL

**Q.** Which results are given for `NS(=O)(=O)c1ccc(Cc2c(-c3cccc(-c4ccccc4)c3)nn(-c3nc(C(=O)O)cs3)c2CC2CC2)cc1`?
**A.** CL (Mus musculus [1]): 294 L/h/kg; IC50 [2]: 29.8 µM; Drug uptake [3]: Active; Drug uptake [4]: Active; growth inhibition (GI) (MIA PaCa-2): Active; Drug metabolism (Liver [5]): Metabolite_Notdetected; Drug metabolism (Liver [6]): Metabolite_Notdetected; AUClast (Mus musculus [7]): 0.19 µM·h; Vdss (Mus musculus [8]): 27 L/kg; Cmax (Mus musculus [9]): 1780 nM; AUClast (Mus musculus [10]): 2.5 µM·h; F (Mus musculus [11]): 50%
